Measurements taken from article PMC3242765, “Inhibitors of Alphavirus Entry and Replication Identified with a Stable Chikungunya Replicon Cell Line and Virus-Based Assays” (PLoS ONE, 2011).

Tested on: SFV-Rluc
Conditions: for SFV replication % left: primary screening of chemical libraries, compounds tested at 50 µM; for % left (remaining SFV replication): Supplementary Table 2, moderately active compounds (25 - 60% remaining), primary screen at 50 µM

`COc1cc(C(=O)O)cc(OC)c1O` [NC-097] was tested, and the “SFV replication % left” value was 61.1%.

`CC[C@@]1(O)C(=O)OCc2c1cc1n(c2=O)Cc2cc3ccccc3nc2-1` [NC-099] was tested, and the “SFV replication % left” value was 87.7%.

With `O=C1c2c(O)cc(O)cc2O[C@H](c2ccc(O)c(O)c2)[C@H]1O` [NC-100] the “SFV replication % left” value was 93.7%.

For `Cc1ccc(C(C)C)c(O)c1` [NC-101], the “% left (remaining SFV replication)” value was 42.0% and the “SFV replication % left” value was 42.0%.

For `COc1cc(C(=O)O)cc(OC)c1OC` [NC-102], the “% left (remaining SFV replication)” value was 34.1% and the “SFV replication % left” value was 34.0%.

In the case of `Cc1c(C)c2c(c(C)c1O)CCC(C)(C(=O)O)O2` (centres unmarked) [NC-103], the “SFV replication % left” value is reported as 76.9%.

`O=c1ccc2ccc(O)cc2o1` [NC-104] was tested, and the “SFV replication % left” value was 93.1%.

`COc1cc(C(=O)O)ccc1O` [NC-105] was tested, and the “SFV replication % left” value was 53.4%.

For `COc1cc(C=O)ccc1O` [NC-106], the “% left (remaining SFV replication)” value was 47.9% and the “SFV replication % left” value was 47.9%.

For `Cc1cc(C(C)(C)C)c(O)c(C(C)(C)C)c1` [NC-107], the “SFV replication % left” value was 72.6%.

For `Cc1cc(=O)oc2cc(O)ccc12` [NC-108], the “SFV replication % left” value was 90.9%.

For `COc1cc2oc(=O)ccc2cc1O` [NC-109], the “SFV replication % left” value was 120.6%.

With `COc1cc2ccc(=O)oc2c(O)c1O` [NC-110] the “SFV replication % left” value was 103.6%.

In the case of `COc1cc2ccc(=O)oc2c(O)c1OC` [NC-111], the “SFV replication % left” value is reported as 77.8%.

With `O=c1ccc2ccc(O)c(O)c2o1` [NC-112] the “SFV replication % left” value was 90.6%.

With `COc1ccc2ccc(=O)oc2c1O` [NC-113] the “SFV replication % left” value was 105.6%.

For `COc1cc2ccc(=O)oc2cc1O` [NC-114], the “SFV replication % left” value was 81.9%.

With `O=c1ccc2ccc(O)cc2o1` [NC-115] the “SFV replication % left” value was 78.4%.

In the case of `Cc1ccc2oc(=O)ccc2c1` [NC-116], the “SFV replication % left” value is reported as 83.6%.

`O=c1cc(O)c2ccccc2o1` [NC-117] was tested, and the “SFV replication % left” value was 100.2%.

In the case of `CC(=O)CC(c1ccccc1)c1c(O)c2ccccc2oc1=O` (centres unmarked) [NC-118], the “SFV replication % left” value is reported as 79.5%.

`COc1ccc2oc(=O)cc(C)c2c1` [NC-119] was tested, and the “SFV replication % left” value was 66.6%.

With `COc1ccc2c(C)cc(=O)oc2c1` [NC-120] the “SFV replication % left” value was 72.2%.

`Cc1cc(=O)oc2cc(O)cc(O)c12` [NC-122] was tested, and the “SFV replication % left” value was 66.7%.

With `CN1CCCCC1CCN1c2ccccc2Sc2ccc([S+](C)[O-])cc21` (centres unmarked) [NC-123] the “SFV replication % left” value was 131.1%.

With `COc1ccc2ccc(=O)oc2c1` [NC-124] the “SFV replication % left” value was 53.2%.

With `O=C(O)c1cc2cc(Br)cc(Br)c2oc1=O` [NC-125] the “SFV replication % left” value was 67.4%.

In the case of `O=c1ccc2cc(O)c(O)cc2o1` [NC-126], the “SFV replication % left” value is reported as 103.6%.

For `O.O.O.O=c1ccc2cc(O[C@@H]3O[C@H](CO)[C@@H](O)[C@H](O)[C@H]3O)c(O)cc2o1.O=c1ccc2cc(O[C@@H]3O[C@H](CO)[C@@H](O)[C@H](O)[C@H]3O)c(O)cc2o1` [NC-127], the “SFV replication % left” value was 95.0%.

With `COc1cc(OC)c2ccc(=O)oc2c1` [NC-128] the “SFV replication % left” value was 67.4%.

In the case of `COc1c2occc2cc2ccc(=O)oc12` [NC-129], the “SFV replication % left” value is reported as 86.7%.

`O=c1oc2c3c4c(cc2c2c1CCC2)CCCN4CCC3` [NC-130] was tested, and the “SFV replication % left” value was 82.1%.

`O=c1cc(C(F)(F)F)c2cc3c4c(c2o1)CCCN4CCC3` [NC-131] was tested, and the “SFV replication % left” value was 52.6%.

For `CC(=O)Nc1ccc(O)cc1` [PC001-], the “SFV replication % left” value was 63.5%.

In the case of `CC(=O)Nc1ccccc1` [PC-002], the “SFV replication % left” value is reported as 57.3%.

In the case of `CC(=O)Nc1nnc(S(N)(=O)=O)s1` [PC-003], the “SFV replication % left” value is reported as 71.3%.

With `O=C1NC2NC(=O)NC2N1` (centres unmarked) [PC-004] the “SFV replication % left” value was 55.2%.

In the case of `CC(=O)NS(=O)(=O)c1ccc(N)cc1` [PC-005], the “SFV replication % left” value is reported as 63.2%.

`N[C@@H](Cc1ccc(O)c(O)c1)C(=O)O` [PC-007] was tested, and the “SFV replication % left” value was 43.6%.

`C=CCC1(CC=C)C(=O)NC(=O)NC1=O` [PC-008] was tested, and the “SFV replication % left” value was 45.6%.

In the case of `C=CC[C@]1(O)CC[C@H]2[C@@H]3CCC4=CCCC[C@@H]4[C@H]3CC[C@@]21C` [PC-009], the “SFV replication % left” value is reported as 37.2%.

`Nc1ccc(C(=O)O)cc1` [PC-010] was tested, and the “SFV replication % left” value was 56.5%.

For `Cc1c(N)c(=O)n(-c2ccccc2)n1C` [PC-011], the “SFV replication % left” value was 51.6%.

In the case of `CCC(CN(C)C)(CN(C)C)OC(=O)c1ccccc1.Cl` [PC-012], the “SFV replication % left” value is reported as 43.4%.

With `C[C@@]12CCC[C@H]1[C@@H]1CC[C@H]3CCCC[C@]3(C)[C@H]1CC2` [PC-013] the “SFV replication % left” value was 53.0%.

`Cl.c1ccc(CN(CC2=NCCN2)c2ccccc2)cc1` [PC-014] was tested, and the “SFV replication % left” value was 38.7%.

With `Cc1cc(=O)n(-c2ccccc2)n1C` [PC-015] the “SFV replication % left” value was 60.1%.

`Br.COC(=O)C1=CCCN(C)C1` [PC-016] was tested, and the “SFV replication % left” value was 83.6%.

In the case of `CC(C)NCC(O)COc1ccc(CC(N)=O)cc1` (centres unmarked) [PC-017], the “SFV replication % left” value is reported as 44.2%.

`C[N+]1(C)[C@@H]2CC[C@H]1C[C@@H](OC(=O)C(CO)c1ccccc1)C2.O=[N+]([O-])[O-]` (some centres unmarked) [PC-018] was tested, and the “SFV replication % left” value was 46.8%.

`CCCCNCC(O)c1ccc(O)cc1` (centres unmarked) [PC-019] was tested, and the “SFV replication % left” value was 67.1%.

In the case of `CCC1(CC)C(=O)NC(=O)NC1=O` [PC-020], the “SFV replication % left” value is reported as 64.7%.

With `O=C1CC(=O)NC(=O)N1` [PC-021] the “SFV replication % left” value was 48.8%.

For `CCOC(=O)c1ccc(N)cc1` [PC-023], the “SFV replication % left” value was 43.4%.

In the case of `CN(Cc1cc(Br)cc(Br)c1N)C1CCCCC1.Cl` [PC-024], the “SFV replication % left” value is reported as 64.8%.

With `CCCCNC(=O)c1ccc(Cl)cc1O` [PC-025] the “SFV replication % left” value was 49.6%.

With `CC(C)(C)NCC(O)COc1ccccc1C#N` (centres unmarked) [PC-026] the “SFV replication % left” value was 40.7%.

`CC(C)(C)NC[C@H](O)COc1cccc2c1CCCC2=O` [PC-027] was tested, and the “SFV replication % left” value was 59.6%.

In the case of `CS(=O)(=O)OCCCCOS(C)(=O)=O` [PC-028], the “SFV replication % left” value is reported as 51.8%.

For `CCCCC1(CC)C(=O)NC(=O)NC1=O` [PC-029], the “SFV replication % left” value was 45.2%.

`CCC(C)NCC(O)c1ccc2c(c1)CCCC2` (centres unmarked) [PC-030] was tested, and the “SFV replication % left” value was 73.1%.

`CCCCOC(=O)c1ccc(N)cc1` [PC-031] was tested, and the “SFV replication % left” value was 76.6%.

For `CCCCNc1ccc(C(=O)OCCN(C)C)cc1.Cl` [PC-032], the “% left (remaining SFV replication)” value was 45.2% and the “SFV replication % left” value was 45.4%.

`CCCCNC(=O)NS(=O)(=O)c1ccc(N)cc1` [PC-033] was tested, and the “SFV replication % left” value was 83.9%.

In the case of `CCCCNc1ccc(C(=O)OCCN(C)C)cc1.Cl` [PC-034], the “SFV replication % left” value is reported as 63.8%.

With `CC(C)(CO)[C@@H](O)C(=O)NCCC(=O)[O-].CC(C)(CO)[C@@H](O)C(=O)NCCC(=O)[O-].[Ca+2]` [PC-035] the “SFV replication % left” value was 67.9%.

In the case of `CC12CCC(CC1=O)C2(C)C` (centres unmarked) [PC-036], the “SFV replication % left” value is reported as 83.9%.

For `NC(=O)N1c2ccccc2C=Cc2ccccc21` [PC-037], the “% left (remaining SFV replication)” value was 57.3% and the “SFV replication % left” value was 57.2%.

With `CC(C)(C)NCC(O)COc1cccc2c1CCC(=O)N2.Cl` (centres unmarked) [PC-038] the “SFV replication % left” value was 67.2%.

In the case of `CCCCCCCCCCCCCCCC[N+](C)(C)C.[Br-]` [PC-039], the “SFV replication % left” value is reported as 75.0%.

In the case of `O=C(N[C@H](CO)[C@H](O)c1ccc([N+](=O)[O-])cc1)C(Cl)Cl` [PC-040], the “SFV replication % left” value is reported as 73.8%.

For `CNC1=Nc2ccc(Cl)cc2C(c2ccccc2)=[N+]([O-])C1` [PC-041], the “% left (remaining SFV replication)” value was 54.3% and the “SFV replication % left” value was 54.3%.

For `CC(C)(O)C(Cl)(Cl)Cl` [PC-042], the “SFV replication % left” value was 84.2%.

With `CN1C(=O)CN=C(c2ccc(Cl)cc2)c2cc(Cl)ccc21` [PC-043] the “SFV replication % left” value was 64.0%.
